In patent publication US10173995B2, “Pyridine compounds used as PI3 kinase inhibitors” (Teligene Ltd., priority 2013, dated 2019):

Columns and labels:
[1] = system: MCF-7 human breast cancer cell lines; experiment: MCF-7 cell proliferation assay (CCK-8/WST-8, 72 hours); format: cell-based; conditions: MCF7, WST-8
Experimental: A representative number of compounds were assayed against MCF-7 human breast cancer cell lines using the cell proliferation assay:
1. MCF-7 cells were cultured in EMEM (GIBCO, Cat#41500) medium supplemented with 10% fetal bovine serum, 0.01 mg/ml human recombinant insulin and 1% penicillin-streptomycin solution, in the temperature of 37° C., 5% CO2 and 95% humidity. The cells were harvested during the logarithmic growth period and counted with hemocytometer. The cell viability will be over 98% by trypan blue exclusion. Cell Counting Kit-8 (Dojindo, Cat# CK04) was used. 2. A cell suspension (100 μl) was added into 96-well plates (triplicates for each cell concentration), the cell density was 4.0×10^3/well. The next day, the test articles or positive drug stock solution were dissolved in DMSO at the concentration of 10 mM, the stock solutions were diluted with DMSO by serial 3 or 10 fold dilution. Then the test articles dilutions were further diluted with culture medium to the final concentrations of (10.0 μM, 3.33 μM, 1.11 μM, 366 nM, 122 nM, 40.7 nM, 13.6 nM, 4.52 nM and 0 nM), the positive drug dilutions were further diluted with culture medium to 9 final concentrations of (10 μM, 1 μM, 100 nM, 10 nM, 1 nM, 0.1 nM, 0.01 nM, 0.001 nM and 0 nM). […] The absorbance was recorded at 450 nm using Victor Multilabel Plate Reader. […]

[2] = system: A549 cell line xenograft; experiment: In vivo subcutaneous A549 cell line xenograft model in nude mice, tumor growth inhibition; conditions: for Tumor growth inhibition (TGI, %) at 14 days: day 14, A549 xenograft nude mice
Experimental: (§1) A representative protocol for the in vivo experiment is as follows to establish the subcutaneous A549 cell line xenograft model in nude mice and to evaluate the in vivo therapeutic efficacy of the compounds: A549 cells were cultured in RPMI1640 containing 10% fetal bovine serum, 1% L-glutamine, 100 U/mL penicillinG and 100 μg/mL streptomycin. Cells in logarithmic growth phase were harvested and resuspended in 1×PBS for implantation.
(§2) Tumor xenografts were established by injecting tumor cells 5×10^6/mouse into the right flank by sc under sterile conditions. When the tumors reached an appropriate size (100-200 mm^3), mice were randomized into 6 mice per group (8 mice in control group). The tumors were measured using a caliper in two dimensions, length (a), and width (b). Tumor volumes were estimated from measurements of two diameters of the individual tumors as follows: Tumor Volume(mm^3)=(a×b^2)/2 The tumor sizes and animal body weights were measured twice a week. Mice were observed daily for clinical signs. Blood samples were collected 2 hours after last treatment; plasma samples were prepared and stored at −80° C. Tumor tissues were separated, weighed, taken picture, and subsequently stored at −80° C. for further analysis. All animal experiments were performed in accordance with the Guidelines for Use and Care of Animals of the University of Traditional Medicine. The parameters for in vivo efficacy evaluation were calculated according to the guidance of SFDA. Percent T/C (%) was calculated with the following formula: T/C(%)=(TRTV/CRTV)×100%, where TRTV and CRTV stand for relative tumor volume in treatment group and vehicle control group, respectively. Relative tumor volume (RTV) was calculated using the formula: RTV=Vt/V0, where Vt represents volume on testing day, and V0 represents volume on first day of treatment. Tumor growth inhibition (TGI, %) were calculated as TGI (%)=(Ctw−Ttw)/Ctw×100%, where Ctw and Ttw represent mean tumor weight in vehicle control and treatment group, respectively.
(§3) Compound Preparation: Test articles were dissolved in 100% N-methylpyrrolidone (NMP) and 10× solutions were prepared every five days, aliquotted, and stored in the dark at room temperature. On each treatment day, stock solution aliquots were diluted with polyethylene glycol (PEG300) to provide the formulated drug in 10% NMP: 90% PEG300. Dosing solutions were protected from light, and the formulated drug was administered within 1 hour after preparation. In all groups, the dosing volume of 10 mL/kg (0.2 mL/20 g mouse) was scaled to the weight of each animal as determined on the day of dosing, except on weekends when the previous BW is carried forward. Test articles were administered by oral gavage (p.o.) once daily until the end of the study.
(§4) At study endpoint, after blood collection, mice were practiced euthanasia by cervical dislocation, the tumor tissue was collected first, then abdominal cavity was cut open, liver and spleen were excised, then weight after the gallbladder was removed respectively. Organ weight between the treated versus the control groups were compared.

[3] = Kidney weight change versus control in A549 xenograft model in nude mice; format: in vivo; conditions: day 21, A549 xenograft nude mice
Experimental: as §1, §2, §3, §4

[4] = molecular target: PI3K alpha (PIK3CA) (Homo sapiens (Human), UniProt P42336); experiment: In vitro assay of ability to inhibit PI3K alpha activity (phage-tagged kinase competition binding, qPCR)
Chain of PI3K alpha (PIK3CA) (P42336 whole entry, species assumed): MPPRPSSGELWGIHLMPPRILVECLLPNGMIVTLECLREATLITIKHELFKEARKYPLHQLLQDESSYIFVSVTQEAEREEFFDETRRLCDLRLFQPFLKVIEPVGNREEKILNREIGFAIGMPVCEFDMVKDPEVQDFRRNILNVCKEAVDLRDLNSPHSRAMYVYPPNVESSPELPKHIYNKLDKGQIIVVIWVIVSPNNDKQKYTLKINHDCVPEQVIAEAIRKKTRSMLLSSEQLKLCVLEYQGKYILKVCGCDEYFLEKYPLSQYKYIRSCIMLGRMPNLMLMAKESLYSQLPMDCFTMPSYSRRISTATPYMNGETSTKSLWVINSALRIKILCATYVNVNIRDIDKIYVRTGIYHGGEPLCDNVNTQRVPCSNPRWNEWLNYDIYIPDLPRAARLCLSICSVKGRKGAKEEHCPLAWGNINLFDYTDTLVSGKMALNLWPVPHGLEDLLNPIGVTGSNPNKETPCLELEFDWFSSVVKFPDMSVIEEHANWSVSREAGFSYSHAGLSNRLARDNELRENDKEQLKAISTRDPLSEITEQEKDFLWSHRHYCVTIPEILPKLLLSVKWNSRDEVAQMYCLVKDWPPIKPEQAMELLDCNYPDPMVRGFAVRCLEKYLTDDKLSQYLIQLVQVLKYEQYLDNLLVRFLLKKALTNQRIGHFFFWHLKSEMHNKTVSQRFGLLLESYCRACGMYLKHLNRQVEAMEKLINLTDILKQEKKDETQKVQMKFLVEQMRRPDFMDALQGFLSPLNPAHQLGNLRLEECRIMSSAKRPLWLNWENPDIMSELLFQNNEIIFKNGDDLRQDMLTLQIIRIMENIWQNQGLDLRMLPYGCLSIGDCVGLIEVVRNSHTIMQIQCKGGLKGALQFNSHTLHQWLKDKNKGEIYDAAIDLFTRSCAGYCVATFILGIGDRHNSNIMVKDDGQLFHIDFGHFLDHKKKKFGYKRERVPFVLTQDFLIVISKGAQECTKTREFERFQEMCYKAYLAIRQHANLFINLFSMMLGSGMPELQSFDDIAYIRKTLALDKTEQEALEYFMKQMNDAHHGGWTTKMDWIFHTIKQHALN
Experimental: (§5) (a) An in vitro assay which determines the ability of a test compound to inhibit PI3K alpha activity: PI3 alpha (PIK3CA) kinase-tagged T7 phage strains were prepared in an E. coli host derived from the BL21 strain. E. coli were grown to log-phase and infected with T7 phage and incubated with shaking at 32° C. until lysis. The lysates were centrifuged and filtered to remove cell debris. The remaining kinases were produced in HEK-293 cells and subsequently tagged with DNA for qPCR detection. […] The liganded beads were blocked with excess biotin and washed with blocking buffer (SeaBlock (Pierce), 1% BSA, 0.05% Tween 20, 1 mM DTT) to remove unbound ligand and to reduce non-specific binding. Binding reactions were assembled by combining kinases, liganded affinity beads, and test compounds in 1× binding buffer (20% SeaBlock, 0.17×PBS, 0.05% Tween 20, 6 mM DTT). All reactions were performed in polystyrene 96-well plates in a final volume of 0.135 ml. The assay plates were incubated at room temperature with shaking for 1 hour and the affinity beads were washed with wash buffer (1×PBS, 0.05% Tween 20). […] The kinase concentration in the eluates was measured by qPCR.
An 11-point 3-fold serial dilution of each test compound was prepared in 100% DMSO at 100× final test concentration and subsequently diluted to 1× in the assay (final DMSO concentration=1%).
Binding constants (Kd's) were calculated with a standard dose-response curve using the Hill equation: Response=Background+(Signal−Background)/(1+(Kd^Hill Slope/Dose^Hill Slope)) The Hill Slope was set to −1. Curves were fitted using a non-linear least square fit with the Levenberg-Marquardt algorithm.

[5] = molecular target: MTOR (Mammalian target of rapamycin) (Homo sapiens (Human), UniProt P42345); experiment: In vitro assay of ability to inhibit MTOR (same conditions as PI3K alpha assay); format: binding; conditions: read-out: IC50 for MTOR inhibition
Experimental: as §5, with “qPCR. […]” for “qPCR.”
Binding constants (Kd's) were calculated with a standard dose-response curve using the Hill equation: Response=Background+(Signal−Background)/(1+(Kd^Hill Slope/Dose^Hill Slope)) The Hill Slope was set to −1. […]

[6] = 49 μmol/kg oral gavage once daily
[7] = 98 μmol/kg oral gavage once daily

| IC50 [1] [nM] | Kidney weight change compared to the control at 21 days [3, 6] [%] | Kidney weight change compared to the control at 21 days [3, 7] [%] | IC50 [4] [nM] | Structure (SMILES) | Tumor growth inhibition (TGI, %) at 14 days [2, 6] [%] | Tumor growth inhibition (TGI, %) at 14 days [2, 7] [%] | also measured |
| --- | --- | --- | --- | --- | --- | --- | --- |
| 186 | −8.7 | −20.1 |  | Nc1cc(C(F)(F)F)c(-c2cc(N3CCOCC3)nc(N3CCOCC3)n2)cn1 [Compound 1, 5-(2,6-Dimorpholinopyrimidin-4-yl)-4-(trifluoromethyl)pyridin-2-amine, reference compound] | 36 | 70 |  |
|  |  |  | 1.9 | CNc1cc(C(F)(F)F)c(-c2cc(N3CCOCC3)nc(N3CCOCC3)n2)cn1 [Compound 4, 5-(2,6-dimorpholinopyrimidin-4-yl)-N-methyl-4-(trifluoromethyl)pyridin-2-amine] |  |  |  |

The remaining lines, values behind:

| Structure (SMILES) | IC50 [1] [nM] | Kidney weight change compared to the control at 21 days [3, 6] [%] | Kidney weight change compared to the control at 21 days [3, 7] [%] | IC50 [4] [nM] | Tumor growth inhibition (TGI, %) at 14 days [2, 6] [%] | Tumor growth inhibition (TGI, %) at 14 days [2, 7] [%] | also measured |
| --- | --- | --- | --- | --- | --- | --- | --- |
| CC(=O)Nc1cc(C(F)(F)F)c(-c2cc(N3CCOCC3)nc(N3CCOCC3)n2)cn1 [Compound 2, N-(5-(2,6-dimorpholinopyrimidin-4-yl)-4-(trifluoromethyl)pyridin-2-yl)acetamide] | 82.4 |  |  |  | 52 | 82 |  |
| CCNc1cc(C(F)(F)F)c(-c2cc(N3CCOCC3)nc(N3CCOCC3)n2)cn1 [Compound 5, 5-(2,6-dimorpholinopyrimidin-4-yl)-N-ethyl-4-(trifluoromethyl)pyridin-2-amine] |  |  |  | 10 |  |  |  |
| CCCNc1cc(C(F)(F)F)c(-c2cc(N3CCOCC3)nc(N3CCOCC3)n2)cn1 [Compound 6, 5-(2,6-dimorpholinopyrimidin-4-yl)-N-propyl-4-(trifluoromethyl)pyridin-2-amine] |  |  |  | 60 |  |  |  |
| NCC(=O)Nc1cc(C(F)(F)F)c(-c2cc(N3CCOCC3)nc(N3CCOCC3)n2)cn1 [Compound 9, 2-amino-N-(5-(2,6-dimorpholinopyrimidin-4-yl)-4-(trifluoromethyl)pyridin-2-yl)acetamide] |  | −5.0 | −8.1 | 0.84 |  |  | IC50 [5]: 26 nM; Efficacy in A549 xenograft model at day 21 (in words) ([2]; 49 μmol/kg dose, day 21): better efficacy than Compound 1; Kidney weight decrease compared with the control (in words) [3]: much less decreased kidney weight than Compound 1 |
